Source: ChEMBL document CHEMBL4616586, “Design, synthesis and biological evaluation of substituted flavones and aurones as potential anti-influenza agents” (Bioorg Med Chem, 2020)
Active and inactive are the calls of the source. The calls are words filed in the database; no cut-off is given here.

What was measured:
[1] = Cytotoxicity against dog MDCK cells assessed as reduction in cell viability by MTT assay; assay type: cell-based, Canis lupus familiaris
Influenza A virus = assay: Antiviral activity against Influenza A virus (H1N1) infected in dog MDCK cells assessed as reduction in log2HA titer incubated for 3 to 4 days by CPE assay; assay type: functional, organism-based
[2] = Selectivity index, ratio of CC50 for dog MDCK cells to EC50 for Influenza A virus (H1N1) infected in dog MDCK cells; assay type: toxicity, cell-based; details: read-out: Ratio CC50/EC50
[3] = target: Neuraminidase (Influenza A virus (A/Puerto Rico/8/1934(H1N1)), UniProt P03468); assay: Inhibition of Influenza A virus (H1N1) neuraminidase
[4] = target: Neuraminidase (Influenza A virus (A/Puerto Rico/8/1934(H1N1))) (UniProt P03468); assay: Non-competitive inhibition of Influenza A virus (H1N1) neuraminidase by Lineweaver-Burk plot analysis
Sequence of Neuraminidase (Influenza A virus (A/Puerto Rico/8/1934(H1N1))) (P03468 whole entry): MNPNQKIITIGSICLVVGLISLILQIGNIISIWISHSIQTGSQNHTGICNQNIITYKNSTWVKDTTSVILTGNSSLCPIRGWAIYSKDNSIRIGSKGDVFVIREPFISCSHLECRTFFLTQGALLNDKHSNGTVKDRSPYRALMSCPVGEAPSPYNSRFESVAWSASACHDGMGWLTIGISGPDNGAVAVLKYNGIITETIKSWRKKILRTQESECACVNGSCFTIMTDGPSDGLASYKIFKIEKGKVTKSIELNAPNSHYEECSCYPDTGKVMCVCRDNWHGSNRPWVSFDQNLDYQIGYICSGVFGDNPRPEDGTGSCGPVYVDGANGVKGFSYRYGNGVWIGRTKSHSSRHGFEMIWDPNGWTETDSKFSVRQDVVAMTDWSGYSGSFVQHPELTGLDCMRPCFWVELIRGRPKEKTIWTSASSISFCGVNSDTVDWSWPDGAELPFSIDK

Sequence of Neuraminidase (Influenza A virus (A/Puerto Rico/8/1934(H1N1)), UniProt P03468) (P03468 whole entry): as above

Row | SMILES | CC50 [1] | EC50 (Influenza A virus) | selectivity ratio [2] | IC50 [3] | inhibition [4]
1 | COc1cccc(/C=C2\Oc3ccccc3C2=O)c1 [3'-METHOXY-AURONE] | 7.81 µM |  |  |  | 
2 | CCC(CC)O[C@@H]1C=C(C(=O)O)C[C@H](N)[C@H]1NC(C)=O [OSELTAMIVIR CARBOXYLATE] | 713 µM | 0.0071 µM |  |  | 
3 | COc1ccc(-c2cc(=O)c3ccccc3o2)cc1 [4'-METHOXYFLAVONE] | 192 µM | 0.00936 µM | 20500 | 8.74 µM | Active
4 | O=c1cc(-c2ccc(Cl)cc2)oc2ccccc12 | 115 µM | 0.0359 µM | 3210 | 27.7 µM | 
5 | O=c1c(O)c(-c2ccc(O)c(O)c2)oc2cc(O)cc(O)c12 [QUERCETIN] |  | 0.0845 µM | 3010 | 7.75 µM | Active
6 | O=c1cc(-c2ccccc2Cl)oc2ccccc12 | 388 µM |  |  |  | 
7 | COc1ccccc1-c1cc(=O)c2ccccc2o1 | 171 µM |  |  |  | 
8 | COc1cccc(-c2cc(=O)c3ccccc3o2)c1 | 263 µM | 0.0126 µM | 21000 | 10.8 µM | 
9 | COc1ccc(/C=C2\Oc3ccccc3C2=O)cc1 [4'-METHOXY-AURONE] | 169 µM | 0.0353 µM | 4800 | 37.5 µM | Active
10 | O=C1/C(=C/c2cccc([N+](=O)[O-])c2)Oc2ccccc21 | 396 µM |  |  |  | 
11 | O=C1/C(=C/c2ccc(Cl)cc2)Oc2ccccc21 | 272 µM | 0.0514 µM | 5300 | 45.4 µM | 
12 | O=C1/C(=C/c2ccccc2Cl)Oc2ccccc21 | 339 µM |  |  |  | 
13 | O=C1/C(=C/c2cccc(Cl)c2)Oc2ccccc21 | 26.9 µM |  |  |  | 
14 | O=c1cc(-c2cccc([N+](=O)[O-])c2)oc2ccccc12 | 269 µM | 0.0141 µM | 19100 | 15.4 µM | 
15 | O=C1/C(=C/c2ccc([N+](=O)[O-])cc2)Oc2ccccc21 | 213 µM | 0.0463 µM | 4600 | 41 µM | 
16 | O=c1cc(-c2cccc(Cl)c2)oc2ccccc12 | 174 µM | 0.0477 µM | 3650 | 32.6 µM | 
17 | COc1ccccc1/C=C1\Oc2ccccc2C1=O [(Z)-2'-METHOXYAURONE] | 273 µM |  |  |  | 
